Assays:
[1] = tested on: Staphylococcus aureus; assay: MIC, microtiter broth dilution; type: cell-based; settings: dilutions 2-500 μg/ml, overnight 37° C.
Protocol: (§1) The minimum inhibitory concentrations (MIC) of purified compound showing significant zones of inhibition in the preliminary antimicrobial assay using agar well diffusion method were evaluated. MIC assay was carried out by a microtiter broth dilution method with some modifications. Stock solution of each pathogen was prepared in normal saline solution i.e. 0.85% NaCl (w/v) at a concentration of 10^8 cells/ml and finally diluted with respective growth media to give approximately 10^5 CFU/ml for all organisms. Different dilutions of compound was prepared (2-500 μg/ml) by serial dilutions. 100 μl of each concentration (2-500 μg/ml) of the compound was loaded onto each well and was mixed with 100 μl of diluted pathogens containing 10^5 CFU/ml. […] The microtitre plates were then incubated overnight at 37° C. for bacterial pathogens and 28° C. for fungal pathogens and were analysed after incubation.

[2] = tested on: Micrococcus luteus; assay: MIC, microtiter broth dilution; type: cell-based; settings: dilutions 2-500 μg/ml, overnight 37° C.
Protocol: as §1

[3] = tested on: Bacillus cereus; assay: MIC, microtiter broth dilution; type: cell-based; settings: dilutions 2-500 μg/ml, overnight 37° C.
Protocol: as §1

[4] = tested on: Bacillus subtilis; assay: MIC, microtiter broth dilution; type: cell-based; settings: dilutions 2-500 μg/ml, overnight 37° C.
Protocol: as §1

[5] = tested on: HT-29; assay: MTT cytotoxicity; type: cell-based; settings: Homo sapiens; HT-29, MTT, 48 hours, 100 μM concentration range
Protocol: (§2) 5×10^3 cells were seeded/well in a 96 well plate and treated with Compounds (1-3) for 48 hours with 100 μM concentration range to a panel of cancer cell lines. After 44 hour MTT with final concentration of 0.5 mg/ml were added to cells and incubated for 4 hour at 37° C. until formazon crystals are formed. MTT was removed and formazon crystals were lysed by DMSO for 30 minutes at 37° C., the absorbance was measured at 570 nm and the IC50 values were calculated using graph pad prism.

[6] = tested on: PC3; assay: MTT cytotoxicity; type: cell-based; settings: Homo sapiens, PC-3, 48 hours, 100 μM concentration range
Protocol: as §2

[7] = tested on: A549; assay: MTT cytotoxicity; type: cell-based; settings: Homo sapiens, 48 hours, 100 μM concentration range
Protocol: as §2

[8] = tested on: Panc-1; assay: MTT cytotoxicity; type: cell-based; settings: Homo sapiens; Panc-1, MTT, 48 hours, 100 μM concentration range
Protocol: as §2

[9] = tested on: MCF-7; assay: MTT cytotoxicity; type: cell-based; settings: Homo sapiens, MCF7; MCF-7, MTT, 48 hours, 100 μM concentration range
Protocol: as §2

[10] = tested on: HCT-116; assay: MTT cytotoxicity; type: cell-based; settings: Homo sapiens; HCT-116, MTT, 48 hours, 100 μM concentration range
Protocol: as §2

[11] = tested on: MDA-MB-231; assay: MTT cytotoxicity; type: cell-based; settings: Homo sapiens; MDA-MB-231, MTT, 48 hours, 100 μM concentration range
Protocol: as §2

[12] = tested on: MiaPaca-2; assay: MTT cytotoxicity; type: cell-based; settings: Homo sapiens, MIA PaCa-2; MiaPaca-2, MTT, 48 hours, 100 μM concentration range
Protocol: as §2

[13] = MTT cytotoxicity; type: cell-based; settings: human, FR2 cells, 100 μM concentration range
Protocol: as §2

[14] = tested on: HT-29; assay: Scratch assay (migration); type: cell-based; settings: HT-29, concentrations within the range of IC50
Protocol: (§3) Scratch assay was performed in the panel of cancer cell lines with varying degree of invasive and migratory capabilities as shown in FIG. 4. Our results unveiled that setomimycin inhibited the migratory potential of all the cell lines treated with different concentration of setomimycin within the range of their IC50 values. […] 5×10^5 cells were seeded onto 6 well plate and grown upto more than 90% confluency. After the proper attachment of cells wounds were created with the help of a 20-200 μL sterile pipette tip. Subsequently the cells were treated with indicated concentration of setomimycin and vehicle (DMSO). The images were taken under inverted microscope at 20× magnification.

[15] = tested on: MCF-7; assay: Scratch assay (migration); type: cell-based; settings: MCF-7, concentrations within the range of IC50
Protocol: as §3

[16] = tested on: HCT-116; assay: Scratch assay (migration); type: cell-based; settings: HCT-116, concentrations within the range of IC50
Protocol: as §3

[17] = tested on: HT-29; assay: Colony formation assay; type: cell-based; settings: HT-29, concentrations nearby the IC50, 5 days
Protocol: (§4) Colony formation assay was performed to further certify the antiproliferative properties of setomimycin in four different cancer cell lines viz. HT-29, MiaPaca-2, HCT-116 and MCF-7. Cells were seeded onto 6 well plates at seeding density 1×10^3 fells/well and treated with increasing concentration of setomimycin nearby the IC50 values for 5 days. Upon termination the cells were stained with 0.1% crystal violet for 20-30 minutes and washed with dH2O thoroughly. The images were taken from plates with NIKON camera (D3100). Average colonies (n=3) were quantified from different fields. Bar graphs represent the number of colonies (n=3, error bars indicate ±SD).

[18] = tested on: MCF-7; assay: Colony formation assay; type: cell-based; settings: MCF-7, concentrations nearby the IC50, 5 days
Protocol: as §4

[19] = tested on: HCT-116; assay: Colony formation assay; type: cell-based; settings: HCT-116, concentrations nearby the IC50, 5 days
Protocol: as §4

[20] = tested on: MCF-7; assay: Transwell invasion assay; type: cell-based; settings: MCF-7, 48 hours, increasing concentration
Protocol: (§5) The above results depict significant antiproliferative effects of setomimycin in different cell lines near IC50 values. Transwell invasion assay was performed to check the anti-invasive properties of setomimycin. […] (A-B) 1.2×10^6 HCT-116 and MCF-7 cells were seeded in the upper chamber of inserts in serum free medium and treated with indicated concentration of setomimycin for 48 hours. (After 48 hours the invaded cells from lower insert were fixed with ice cold methanol and stained with 0.1% crystal violet for 20-30 minutes. After staining the inserts were washed with dH2O thoroughly and cells from three different fields in each treated condition were counted and photographed under an inverted microscope (20× magnifications). (C-D) Bar graph representing the number of invaded cells (n=3, error bars indicate ±SD).

[21] = tested on: HCT-116; assay: Transwell invasion assay; type: cell-based; settings: HCT-116, 48 hours, increasing concentration
Protocol: as §5

[22] = tested on: MiaPaca-2; assay: Colony formation assay; type: cell-based, human; settings: MiaPaca-2, concentrations nearby the IC50, 5 days
Protocol: as §4

[23] = tested on: Sarcoma-180; settings: Sarcoma-180 mouse solid tumor model, 200 mg/kg per day for seven days; cited from earlier work
[24] = tested on: Phospho MEK; assay: Western blotting; type: cell-based; settings: HCT-116 and MCF-7 cells, 48 h, increasing concentration
Protocol: (§6) FIG. 5 Illustrates effect of setomimycin (Compound-3) pro-proliferative and anti-apoptotic protein targets in cancer cells: (A-B) Immunoblot analysis of ERK, p-MEK, Par-4, BCL-2 and β-actin in HCT-116 and MCF-7 cells treated with setomimycin for 48 h. (C-D) Densitometry analysis showing relative protein expression for the western blots presented Strong active potential of setomimycin against tumor cell proliferation and migration at nearby concentration of IC50 values was depicted by MTT data. Further, molecular docking studies predicted the strong affinity of setomimycin targeting MEK pathway. ERK and MEK are the major signaling pathways regulating cancer cell proliferation, differentiation and apoptosis. Therefore, Western blotting was carried out to check the effects of Setomimycin on ERK and MEK proteins.

[25] = tested on: Par-4; assay: Western blotting; type: cell-based; settings: HCT-116 and MCF-7 cells, 48 h
Protocol: as §6

[26] = tested on: ERK; assay: Western blotting; type: cell-based; settings: HCT-116 and MCF-7 cells, 48 h
Protocol: as §6

[27] = tested on: BCL-2; assay: Western blotting; type: cell-based; settings: HCT-116 and MCF-7 cells, 48 h
Protocol: as §6

[28] = tested on: MiaPaca-2; assay: Scratch assay (migration); type: cell-based, human; settings: MiaPaca-2, concentrations within the range of IC50
Protocol: as §3

[29] = tested on: Gram positive bacteria i.e. S. aureus, B. subtilis, B. cereus, and M. smegmatis; settings: literature 1978; cited from earlier work

Row | Compound | Minimum Inhibitory Concentration [1] | Minimum Inhibitory Concentration [2] | Minimum Inhibitory Concentration [3] | Minimum Inhibitory Concentration [4] | IC50 [5] [µM] | IC50 [6] [µM] | IC50 [7] [µM] | IC50 [8] [µM] | IC50 [9] [µM] | IC50 [10] [µM] | IC50 [11] [µM] | IC50 [12] [µM] | IC50 at 48 h [13] [µM] | other results
1 | CC(=O)[C@H]1c2cc3cccc(O)c3c(O)c2C(=O)C[C@]1(C)O [Compound-1] | 25 | 6 | 12 | 12 | 8.64 | 14.7 | 38.9 | 15.6 | 9.56 | 10.4 | 13.6 | 12.7 | 48.7 | –
2 | CC(=O)[C@H]1c2c(c(O)c3c(O)cccc3c2-c2c3c(c(O)c4c(O)cccc24)C(=O)C[C@](C)(O)[C@H]3C(C)=O)C(=O)C[C@]1(C)O [Compound-2] | 12 | 4 | 6 | 6 | 15.5 | 17.5 | 38.7 | 21.3 | 11.2 | 18.9 | 12.5 | 8.31 | 62.3 | –
3 | CC(=O)[C@@H]1C(C)=CC(=O)c2c1c(-c1c3c(c(O)c4c(O)cccc14)C(=O)C[C@](C)(O)[C@H]3C(C)=O)c1cccc(O)c1c2O [Compound-3, Setomimycin] | 8 | 8 | 4 | 16 | 4.2 | 7.02 | 11.5 | 48 | 6.9 | 5.3 | 7.5 | 4.57 | 53.3 | Cell migration, scratch assay [14]: inhibited the cell migration; Cell migration, scratch assay [15]: inhibited the cell migration; Cell migration, scratch assay [16]: inhibited the cell migration; Antiproliferative effect, colony formation [17]: promising results near the IC50 values; Antiproliferative effect, colony formation [18]: promising results near the IC50 values; Antiproliferative effect, colony formation [19]: promising results near the IC50 values; Invasion of cells, transwell [20]: significantly inhibited; Invasion of cells, transwell [21]: significantly inhibited; Antiproliferative effect, colony formation [22]: promising results near the IC50 values; Tumor growth [23]: reduce tumor growth; Phospho MEK expression, Western blot [24]: down regulated; Par-4 (pro-apoptotic protein) expression, Western blot [25]: upregulated; ERK protein expression, Western blot [26]: downregulation; BCL-2 (antiapoptotic protein) expression, Western blot [27]: downregulated; Cell migration, scratch assay [28]: inhibited the cell migration; Activity against Gram positive bacteria [29]: active

Reference: US20250230477A1, “A PROCESS FOR THE PREPARATION OF TETRAHYDROANTHRACENES FROM STREPTOMYCES SPP. AND ANTICANCER ACTIVITY THEREOF” (Council of Scientific and Industrial Research, priority 2021, published 2025)
